Results on 1 substance are retold here after patent publication US10746738B2, “Claudin-1 peptide reagents and methods” (THE REGENTS OF THE UNIVERSITY OF MICHIGAN, priority 2015, dated 2020).

“Also recorded” adds a separate entry of the source.

One assay relates to SW620 cells. Description: Apparent association time constant by flow cytometry. Type of assay: binding, human. The conditions noted are these: 5 μM, 4° C. The procedure:
To measure the apparent association time constant of RTS*-Cy5.5, SW620 cells were washed two times with PBS+0.5% BSA, then 1×10^5 cells were incubated with 5 μM RTS*Cy5.5 at 4° C. for different time intervals ranging from 2-15 min. The cells were immediately washed of unbound peptide several times with PBS+0.5% before analyzing via flow cytometry. The mean fluorescent intensity of SW620 cells at the various time points was ratioed with that of untreated cells and used to calculate the rate constant, k, by fitting the data to a first order kinetics model, y(t)=Imax[1−exp^(−kt)], using Origin 6.1 software.
To measure the apparent association time constant of RTS*-Cy5.5, SW620 cells were washed 2× with PBS+0.5% BSA, then ˜10^5 cells were incubated with 5 μM RTS*-Cy5.5 at 4° C. for time intervals ranging from 2-15 min. The cells were immediately washed of unbound peptide 5× with PBS+0.5% BSA before analyzing with flow cytometry. The mean fluorescence intensity of SW620 cells at the various time points was ratioed with that of untreated cells and used to calculate the rate constant k by fitting the data to a first order kinetics model, y(t)=Imax[1−exp^(−kt)], using Origin 6.1 software. An apparent association time constant k=0.83 min^−1 which corresponds to <1.2 min was measured.

A further assay has as its system colonic dysplasia. Description: In vivo fluorescence endoscopy of colon in CPC;Apc mouse. As to conditions: CPC;Apc mouse colon. The text has this: A genetically engineered mouse model (Cpc;Apc) that spontaneously forms adenomatous polyps in the colon was used for this study and handled according to Institutional Guidelines. The colons of anesthetized mice were first cleaned with water before imaging with a small animal endoscope (Karl Storz Veterinary Endoscope) using the white light channel to locate polyps by identifying anatomic landmarks and the distance of the endoscope tip from the anus. […] Fluorescent and reflectance images were then collected with the same endoscope set to the appropriate channels. Once in vivo imaging was complete, four of the mice used in the study were euthanized and colons harvested. Polyps and flat lesions detected during fluorescence imaging were located, removed, and processed for histology (H&E).
These mice are genetically-engineered to spontaneously develop colonic dysplasia, and the colonic lesions that develop are molecularly and histologically similar to that seen in human disease, making these mice a good model for monitoring cancer development. Because the extra-cellular domain of claudin-1 is completely homologous between human and mouse, peptides developed for human targets can be directly used in mouse imaging experiments. […] CPC;Apc mice were imaged at ˜3 months of age when they first begin to develop dysplasia. […] After imaging is completed, mice were euthanized, and the colons were resected. Based on the location of dysplastic lesions determined using fluorescence images collected with endoscopy, a pathologist measured the depth of dysplasia on histology, as shown by the dashed arrow in FIG. 7E. […] Images are obtained from mice over at least three sessions separated by 1 week to monitor for cancer progression.

In the case of “RTS*-Cy5.5: RTSPSSR labeled at the C-terminus with Cy5.5 via a GGGSK linker”, the “time corresponding to association time constant” value in the assay on SW620 cells is recorded as less than 1.2 min. Moreover, the “apparent association time constant k” value in the assay on SW620 cells (2-15 min) worked out at 0.83 min⁻¹. In the assay on colonic dysplasia, the “fluorescence signal from dysplasia on endoscopy” value is “Increased signal; also recorded: increased fluorescence”.
